Laboratory results: patent publication US20240058265A1, “TREATMENT OF OCULAR DISEASES USING ENDOTHELIN RECEPTOR ANTAGONISTS” (Perfuse Therapeutics, Inc., priority 2021, published 2024)
Values after ≈ are worked out from the molar mass of the structure shown. Values joined by “and” are separate entries in the source; they are usually repeats but may differ in a detail not shown here. Identical values can stand only once. Like-named read-outs stand apart in the source and are kept apart here. Where no end group is shown, it is not given here.

Tests used:
[1] = Pharmacokinetics after topical or oral administration in the rat; type: in vivo, Brown Norway rats
Method: After the administrations, the animals (N=2) were euthanized at different time points (e.g. 4 and 8 hours) and tissues were collected for analysis. List of tissues collected include plasma, retina/retinal pigment epithelium (RPE)/choroid, vitreous humor and aqueous humor.

ETA receptor = biological target: T1, ETA receptor (Homo sapiens, UniProt P25101); assay: Functional potency for ETA receptor; type: biochemical
T1 sequence (P25101 21-427): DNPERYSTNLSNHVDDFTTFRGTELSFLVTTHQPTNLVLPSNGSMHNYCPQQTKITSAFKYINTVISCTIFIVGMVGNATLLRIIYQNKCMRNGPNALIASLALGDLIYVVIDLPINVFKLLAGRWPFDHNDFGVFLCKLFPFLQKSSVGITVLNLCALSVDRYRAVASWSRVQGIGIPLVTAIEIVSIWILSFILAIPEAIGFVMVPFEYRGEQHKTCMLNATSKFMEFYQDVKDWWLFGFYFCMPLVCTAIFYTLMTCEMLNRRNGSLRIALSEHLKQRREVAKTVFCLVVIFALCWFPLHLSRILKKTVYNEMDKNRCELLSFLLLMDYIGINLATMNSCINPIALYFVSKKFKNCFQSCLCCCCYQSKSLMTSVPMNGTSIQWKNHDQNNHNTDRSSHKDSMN
Source text: (§1) In the above table, the physicochemical data, e.g., solubility, were obtained following standard protocols known in the field (see, e.g., Reis et al., Mini Rev Med Chem., 2010, 10(11):1071-6; Avdeef et al., Expert Opin Drug Metab Toxicol., 2005, 1(2):325-42; Bharate et al., Comb Chem High Throughput Screen., 2016, 19(6):461-9; and Jain et al., J Pharm Biomed Anal., 2013, 86:11-35.); and the biochemical data, i.e., potency for ETA/ETB, were obtained following the protocols known in the field (see, e.g., Kirkby et al., Br J Pharmacol., 2008, 153(6):1105-19; and Maguire et al., Br J Pharmacol., 2014, 171(24):5555-72.).

ETA/ETB receptor = details: cited from earlier work
ET-1 induced vasospasm = assay: Rabbit ET-1 induced vasospasm model, retinal blood flow (OCT-A, FA); type: in vivo, rabbit (Oryctolagus cuniculus)
Method: Adult, male Dutch-belted rabbits were given a 20 μl intravitreal injection (IVT) of 0.5 μg of ET-1 followed by a 20 μl intravitreal injection of 10-100 μg Edonentan given 30 min after the ET-1 administration. IOP, optical coherence tomography—angiography (OCT-A), and fluorescein angiograms (FA) were performed at pre-specified time points (30, 45, 60, and 75 min) following ET-1 and Edonentan administration to assess retinal blood flow changes induced by ET-1+/−Edonentan. […] To evaluate the effect of retinal blood flow following intravitreally administered endothelin-1 (ET-1) followed by the antagonist Edonentan in the rabbit, rabbits (Oryctolagus cuniculus) were given a 20 μL intravitreal injection of ET-1 in the left eye followed by a 20 μL intravitreal injection of Edonentan at 2 (or 3) different doses (e.g. 0.1 μg, 0.5 μg, 2.5 μg). The pulse ox, tonometry, optical coherence tomography angiography (OCTA), fluorescein angiography (FA) and retinal leakage scoring were performed for evaluation.

elevated IOP rat eye = assay: Morrison's rat model of glaucoma (RGC counts, PERG); type: in vivo, Brown Norway rats; details: topical eye drops 100 μg per dose, five days a week, four weeks
Source text: Adult male and female retired breeder Brown Norway rats (approximate age groups of 8 to 11 months) were obtained from Envigo (Indianapolis, IN). Baseline IOP measurements and pattern electroretinogram (PERG) amplitudes were collected prior to the surgery for elevation of IOP (to ensure that the IOP and PERG amplitudes were in the expected range of values). IOP was elevated in one eye (left eye) of the rats, while the corresponding right eyes served as contralateral controls. The Morrison method to elevate IOP in rats was carried out by injection of 50 μL of hypertonic saline through the episcleral veins to sclerose the trabecular meshwork. IOP was measured twice a week throughout the entire duration of the experiment. […] After detecting an elevation of IOP for two consecutive days, topical administration of eye drops ([…] (100 μg,) per dose of the tested compounds in the IOP elevated eye) was commenced and carried out for five days a week for a total of four weeks. In the 4th week of treatment, PERG analysis was carried out and rats were sacrificed by an overdose of pentobarbital (fatal-Plus). Aqueous humor was collected from the rat eyes, frozen and shipped for analysis. Retinal flat mounts were prepared, immunostained with the RGC marker, Brn3a antibody and surviving RG-Cs were counted in two eccentricities (central and peripheral).
For this study, the Morrison's model was used to induce ocular hypertension in adult male retired breeder Brown Norway rats as previously described by. Morrison et al., (Morrison J C, Moore C G, Deppmeier L M, Gold B G, Meshul C K, Johnson E C. A rat model of chronic pressure-induced optic nerve damage. Exp Eye Res. 1997;64(1):85-96).
The immunostained retinal flat mounts were obtained to measure the retinal ganglion cell (RGC) counts. To obtain immunostained retinal flat mounts, the animals were euthanized after the treatments and then their eyes were enucleated. The eye cups were fixed overnight at 4° C. in 4% paraformaldehyde (PFA) and retinal flat mounts were prepared for collecting images. The retinal ganglion cell (RGC) counting was conducted using the images of immunostained retinal flat mounts. The images were uploaded to ImageJ, a photo editor designed for biology research (Rasband, 1997-2018) and the labeled retinal ganglion cells were counted manually in two eccentricities (central and peripheral).
Pattern ERG (PERG) was used to assess the RGC function. […] Briefly, PERG signals were acquired from a DTL-plus electrode placed on the lower part of the corneal surface and the PERG waves were analyzed using the EMWIN software (LKC). The difference between the amplitude of the major positive (P1) and negative (N2) waves were calculated to decipher the PERG amplitude.

Permeability (PAMPA) = type: in vitro ADME
Source text: as §1

Stability in solid state = type: physicochemical; details: 2 h@125° C.
Source text: as §1

[2] = Solubility (pH 2, pH 7, ethyl acetate); type: physicochemical
Source text: as §1

[3] = Solubility of crystalline forms; type: physicochemical; details: room temperature, 24 hours
Method: The solubility described herein can be measured using the following procedure: • ii. Solubility Analysis Protocol • 1. No less than 2.0 mg samples are weighed into lower chamber of whatman miniuniprep vials (GE Healthcare). 450 μL of buffer was added into each chamber. • 2. Filter pistons of miniuniprep vials are placed and compressed to the position of the liquid level to allow for contact of buffer and compound with the filter during incubation. • 3. The samples are vortexed for 2 minutes followed by incubation at room temperature (about 25±2° C.) for 24 hours with shaking at 500 rpm. • 4. Miniunipreps are compressed to prepare the filtrates for injection into HPLC system. All vials are inspected for visible undissolved material before filtering and for leakage after filtering. • 5. Dilute supernatant with buffer by a factor of 100 folds to make diluents which are analyzed with HPLC.

[4] = Slurry conversion of crystalline forms (relative thermodynamic stability); type: physicochemical
Method: In an alternate method, 150 mg of Edonentan (Form 3) was added to a mixture of isopropanol and water (1 mL and 2 mL, respectively). The resulting slurry was stirred at 15° C. for 48 hours and then filtered.
In an alternate method, 200 mg of Edonentan (Form 1) was added to a mixture of isopropanol and water (1.3 mL and 2.6 mL, respectively). The resulting solution was heated to 80° C. and stirred for 24 h, then cooled and filtered.

[5] = tested on: laser-induced glaucoma eye; assay: Laser-induced glaucoma non-human primate, intraocular pressure after topical administration; type: in vivo, rhesus macaque, Macaca Mulatta; details: single dose 50 μL topical 0.5% in each eye, 120 minutes
Method: Non-human primates (rhesus macaque, Macaca Mulatta) were obtained for this study. One eye of each animal underwent induction of elevation of intraocular pressure (TOP) by repeated laser photocoagulation of the trabecular meshwork. Imaging sessions were repeated to monitor the optic nerve head (ONH) and retinal structural changes. A single dose of 0.5% Timolol or a single dose of 2 mg/mL Edonentan was topically administered to three non-human primates that have laser-induced glaucoma in their right eyes (OD) with 1-week wash-out in a randomized order.

## CCCCCS(=O)(=O)N(CCC)CCN1C[C@H](c2ccc3c(c2)OCO3)[C@@H](C(=O)O)[C@@H]1c1ccc(OC)c(F)c1 [A-182086, (2R,3R,4S)-4-(2H-1,3-benzodioxol-5-yl)-2-(3-fluoro-4-methoxyphenyl)-1-[2-(N-propylpentane-1-sulfonamido)ethyl]pyrrolidine-3-carboxylic acid]
[1]; oral, 50 mg/kg
  Detection in retina/RPE/choroid after oral administration: detectable
[1]; topical eye drop 100 μg, 4 and 8 hours
  Detection in retina/RPE/choroid, aqueous humor and vitreous humor: detected
ETA receptor
  Functional potency for ETA and ETB receptors (rating): High potency
  Specificity ETA vs ETB (rating): Low specificity
ETA/ETB receptor
  ETA/ETB selectivity: 4 fold
ET-1 induced vasospasm; healthy rabbits, 0.5 μg ET-1 and 10 μg antagonist IVT (FIG. 3)
  Fluorescein dye velocity as an index of retinal blood flow: improved to control levels
Elevated IOP rat eye
  RGC function (PERG): maintained RGC function
  RGC loss (RGC counts, retinal flat mounts): prevented RGC loss
Permeability (PAMPA)
  Permeability (rating): Mid-High
Stability in solid state
  Stability in Solid State (verdict): unstable
  Stability in Solid State, remaining: about 87% remaining/
[2]; ethyl acetate
  Solubility in Ethyl Acetate (rating): Good
[2]; ethyl acetate, organic solvent or mixture, read-out: Solubility in Ethyl Acetate
  solubility: > 10600 µg/mL and > 18400 µM
[2]; pH 2, read-out: Solubility at pH 2
  solubility: 159.8 µM (≈ 92.5 µg/mL)
[2]; pH 7, amorphous form
  Solubility at pH 7: 298.4 μM

## Cc1onc(NS(=O)(=O)c2ccccc2-c2ccc(-c3ncco3)cc2CN(C)C(=O)CC(C)(C)C)c1C [Form 1]
[3]
  Solubility pH 7.0 Phosphate Buffer: 264 μg/mL

## Cc1onc(NS(=O)(=O)c2ccccc2-c2ccc(-c3ncco3)cc2CN(C)C(=O)CC(C)(C)C)c1C [Form 2]
[3]
  Solubility pH 7.0 Phosphate Buffer: 35 μg/mL

## Cc1onc(NS(=O)(=O)c2ccccc2-c2ccc(-c3ncco3)cc2CN(C)C(=O)CC(C)(C)C)c1C [Form 3]
[3]
  Solubility pH 7.0 Phosphate Buffer: 251 μg/mL

## Cc1onc(NS(=O)(=O)c2ccccc2-c2ccc(-c3ncco3)cc2CN(C)C(=O)CC(C)(C)C)c1C [Form 4]
[3]
  Solubility pH 7.0 Phosphate Buffer: 138 μg/mL
[4]; isopropanol and water, 80° C., 24 h
  Relative thermodynamic stability of crystalline form: more thermodynamically stable than Form 1
[4]; slurry in isopropanol and water, 15° C., 48 hours
  Relative thermodynamic stability of crystalline form: more thermodynamically stable than Form 3

## CC(C)(C)NC[C@H](O)COc1nsnc1N1CCOCC1 [Timolol, reference compound]
[5]; Control 1
  IOP reduction from pre-dose to post-dose: about 20%
[5]; Control 2
  IOP reduction from pre-dose to post-dose: about 30%

## ET-1: Endothelin-1, given intravitreally to induce vasospasm in rabbit retina (CSCSSLMDKECVYFCHLDIIW; ends and bridges not checked; cysteine pairing not given here; UniProt P05305 53-73, looked up) [reference compound]
ET-1 induced vasospasm; 0.5 μg ET-1 IVT, within 45 min
  Vasoconstriction in the retinal vascular beds: induced a clear vasoconstriction
